Source: patent publication US20220062218A1, “COMPOSITIONS AND METHODS FOR TREATING DIABETES” (ENZYCHEM LIFESCIENCES, priority 2019, published 2022)

How the values were obtained:
Assay type in all cases: cell-based, rat
[1] = tested on: INS-1 cells; test: Glucose uptake assay with 2-NBDG in INS-1 cells (flow cytometry, immunofluorescence)
Experimental: 2-[N-(7-nitrobenz-2-oxa-1,3-diazol-4-yl)amino]-2-deoxy-D-glucose (2-NBDG, N13195, Thermo Scientific) was used for glucose uptake assays. Glucose uptake assays were performed using 2-NBDG conjugated with fluorescent dye. Intracellular 2-NBDG was measured at 60 min (FIG. 5A) and successively calculated from 5 min to 480 min after 2-NBDG treatment by How cytometry (FIG. 5B). Serum-containing complete medium was removed, and INS-1 cells were washed in PBS. The cells were cultured in glucose-free culture media for 1 h at 37° C. and then treated with 2-NBDG. Intracellular fluorescence was measured using a BD FACS Verse flow cytometer (BD Biosciences).
Intracellular 2-NBDG expression were also observed using immunofluorescence assay (FIG.5-C). Data are presented as mean ±SD. *P<0.05, **P<0.005, ***P<0.001 vs. control, #P<0.05, ##P<0.005 vs. STZ.
(§1) After treatment with PLAG and PLH(1-palmitoyl-2-linoleoyl-3-hydroxyl-rac-glycerol), apoptosis, intracellular ROS generation and glucose uptake were analyzed by flow cytometry (FIG. 7-B to 7-E). In addition, expression of GLUT2 in membrane fractions was analyzed by Western blotting (FIG.7-F). Data are presented as mean ±SD. ***P<0.001 vs. control, #P<0.05, ##P<0.005 vs. STZ. N.S.: No significance.

[2] = tested on: INS-1 cells; test: High glucose (HG)-induced intracellular ROS generation in INS-1 cells, flow cytometry with DCFH-DA; settings: pre-treated with 50 or 100 μg/mL of PLAG for 1 h, then 30 mM HG for 48 h
Experimental: Intracellular ROS generation also analyzed by flow cytometry using DCFH-DA dye. ROS generation was determined by analyzing changes in fluorescence intensity. INS-1 cells were pre-treated with 50 or 100 μg/mL of PLAG for 1 h, and then treated with 30 mM of HG for 48h. […] PLAG promotes GLUT2 endocytosis in HG-treated INS-1 cells (FIG. 10)
INS-1 rat insulinoma pancreas beta cells were cultured in RPMI-1640 medium (Welgene, Gyeongsangbuk-do, Republic of Korea) containing 10% fetal bovine serum (Tissue Culture Biologicals, Long Beach, Calif., USA), 50 μM β-mercaptoethanol, 100 units/mL penicillin, and 100 μg/mL streptomycin (Antibiotic-Antimycotic Solution, Welgene). The cells were grown in a humidified atmosphere with 5% CO2 at 37° C. Chemicals and reagents
(§2) Cells were collected by trypsinization and washed with ice-cold PBS. For cell apoptosis analyses, INS-1 cells were incubated with annexin V (BD Biosciences, Franklin Lakes, N.J., USA) for 10 min at room temperature, and stained with 7-AAD (BD Biosciences). For intracellular reactive oxygen species (ROS) analyses, cells were incubated with 2 μM of DCFH-DA (2′,7′-dichlorodihydrofluorescein diacetate, Invitrogen, Carlsbad, Calif., USA) for 30 min at 37° C. The analysis was performed using a BD FACS Verse flow cytometer (BD Biosciences).

[3] = tested on: INS-1 cells; test: Intracellular ROS generation in STZ-treated cells, flow cytometry with DCFH-DA and immunofluorescence
Experimental: For intracellular ROS analyses after administering PLAG, cells were incubated with 2 μM of DCFH-DA (2′,7′-dichlorodihydrofluorescein diacetate, Invitrogen, Carlsbad, CA, USA) for 30 min at 37 ° C. The analysis was performed using a BD FACS Verse flow cytometer (BD Biosciences) (FIGS. 4A and 4B), and expression of reactive oxygen species (ROS) was observed by immunofluorescence assay (FIG. 4C). We further examined cell apoptosis in cells co-treated with three types of ROS inhibitor (Apocynin, MitoTEMPO, NAC) to examine the association of intracellular ROS generation with pancreatic beta cell apoptosis. […] Apocynin (NADPH oxidase inhibitor), MitoTEMPO (mitochondrial ROS inhibitor), and N-acetyl-L-cysteine (NAC, an overall ROS inhibitor) were used as the ROS inhibitor. Data are presented as mean ±SD(* P<0.05, ** P<0.005, *** P <0.001 vs control, #P<0.05, ## P<0.005 vs STZ).
as §1, §2

[4] = tested on: Glucose Transporter 2 (GLUT2); test: GLUT2 plasma membrane expression in STZ-treated cells (western blotting of membrane fractions, immunofluorescence)
Experimental: To investigate the effect of PLAG on GLUT2 plasma membrane localization, GLUT2 expression and Racl expression in membrane fractions were examined in the same manner as the Western protein blotting (FIGS. 3A to 3B).
In addition, the localization of GLUT2 was observed by immunofluorescence assay. Cells were grown on glass coverslips in 24-well plates and treated with STZ and PLAG. After washing with ice-cold PBS, the cells were fixed with 4% formaldehyde. Permeabilization was not performed to identify only proteins expressed in the cell membrane. The cells were incubated with anti-GLUT2 antibodies (dilution 1:500) and then stained with an Alexa Fluor 488-conjugated secondary antibody (Enzo Life Sciences, dilution 1:1000) and DAPI (Invitrogen). Stained cells were observed under a Zeiss LSM800 confocal microscope (Carl Zeiss, Jena, Germany) (FIG. 3-C).
as §1

[5] = tested on: clathrin- or caveolin-silenced INS-1 cells; test: Cell apoptosis and ROS generation in clathrin or caveolin siRNA-transfected cells treated with STZ
Experimental: GLUT2-silenced cells were prepared to clarify the role of GLUT2 in STZ-treated cells. INS-1 cells were transfected with GLUT2 siRNA to determine whether GLUT2 expression is related to STZ-induced cell apoptosis and ROS generation.
Apoptosis of pancreatic beta cells, intracellular ROS generation and glucose intake was analyzed by flow cytometry using GLUT2 siRNA transfected cells (FIGS. 6-A to 6-C). The effect of PLAG on (D) cell apoptosis and (E) ROS generation in Endocytosis-related protein, clathrin or caveolin siRNA-transfected cells was analyzed (FIG. 6D and 6-E). Data are presented as mean ±SD. **P<0.005, ***P<0.001 vs. control, ##P<0.005, #IIIIP<0.001 vs. STZ group. N.S.: No significance. Transfection with siRNAs was performed using the HiPerFect reagent (Qiagen, Hilden, Germany), according to the manufacturer's protocol. Specific siRNAs directed against GLUT2, clathrin, and caveolin were obtained from Santa Cruz Biotechnology (Dallas, Tex., USA).

Compound: CCCCC/C=C\C/C=C\CCCCCCCC(=O)OC(COC(C)=O)COC(=O)CCCCCCCCCCCCCCC (racemic) [PLAG, 1-palmitoyl-2-linoleoyl-3-acetyl-rac-glycerol]
- glucose uptake (2-NBDG time course) ([1]; 5 min to 480 min after 2-NBDG treatment, flow cytometry, vs 2-NBDG alone): glucose uptake was attenuated
- glucose uptake (2-NBDG), PLAG vs PLH ([1]; Example 8, flow cytometry): 2-NBDG was slowly absorbed
- intracellular 2-NBDG fluorescence intensity ([1]; at 60 min, flow cytometry): lower fluorescence intensity
- intracellular 2-NBDG (immunofluorescence) ([1]; time course vs 2-NBDG-only treated group): increased more slowly
- HG-induced intracellular ROS generation [2]: dose-dependently decreased
- decrease of ROS generation, PLAG vs PLH ([3]; Example 8): more effective than PLH
- intracellular ROS (dose dependence) ([3]; flow cytometry): dose-dependently decreased
- intracellular ROS (time course) ([3]; flow cytometry and immunofluorescence): attenuated
- GLUT2 endocytosis / internalization, PLAG vs PLH ([4]; Example 8, membrane fractions by western blotting): endocytosis of GLUT2 was promoted
- GLUT2 internalization (immunofluorescence) ([4]; STZ-treated cells, non-permeabilized, up to 60 min): accelerated GLUT2 internalization was observed
- membrane-expressed GLUT2 (time course) ([4]; STZ-treated cells, western blotting of membrane fractions, up to 60 min): gradually decreased until 10 min, then recovered and returned to control levels at 60 min
- apoptosis or ROS generation in clathrin- or caveolin-silenced cells [5]: did not influence apoptosis or ROS generation
